Data set [1] can be described thus: Cytotoxicity against MDCK cells assessed as reduction in cell viability incubated for 72 hrs by MTT assay. Type of data set: toxicity, cell-based, Canis lupus familiaris. The following applies: dog.
Data set [2] has as its system Influenza A virus. Description: Antiviral activity against influenza A virus A/PR/8/34 (H1N1) infected in MDCK cells preincubated 2 hrs followed by viral infection and measured after 24 hrs by MTT assay. Type of data set: functional, organism-based. A general note: Tetrazolium dyes change colour on reduction, which living cells bring about.
Data set [3] has as its system Human alphaherpesvirus 1. Nature of the data set: Antiviral activity against HSV-1 15577 infected in African green monkey Vero cells incubated for 3 days by plaque reduction assay. Type of data set: functional, organism-based. The following applies: Human alphaherpesvirus 1, 15577, Vero, 72 h. For orientation: In a plaque reduction assay, fewer plaques than in the control indicate reduced infectivity or spread.

The nature of data set [4]: Selectivity index, ratio of CC50 for cytotoxicity against African green monkey Vero cells to IC50 for antiviral activity against HSV-2 333 infected in African green monkey Vero cells. The following applies: read-out: Ratio CC50/IC50. It is filed as toxicity, cell-based.
The nature of data set [5]: Selectivity index, ratio of CC50 for cytotoxicity against African green monkey Vero cells to IC50 for antiviral activity against HSV-1 15577 infected in African green monkey Vero cells. The following applies: read-out: Ratio CC50/IC50. Type of data set: toxicity, cell-based.
Data set [6] can be described thus: Selectivity index, ratio of CC50 for cytotoxicity against African green monkey Vero cells to IC50 for antiviral activity against HSV-1 clinical isolate infected in African green monkey Vero cells. It is filed as toxicity, cell-based. Particulars: read-out: Ratio CC50/IC50.
Data set [7] has as its system Human alphaherpesvirus 2. Nature of the data set: Antiviral activity against HSV-2 333 infected in African green monkey Vero cells incubated for 3 days by plaque reduction assay. Type of data set: functional, organism-based. Particulars: Human alphaherpesvirus 2, 333, Vero, 72 h.
The test system of data set [8] is Human alphaherpesvirus 1. Nature of the data set: Antiviral activity against HSV-1 clinical isolate infected in African green monkey Vero cells incubated for 3 days by plaque reduction assay. Type of data set: functional, organism-based. Particulars: Human alphaherpesvirus 1, Vero, 72 h.
Data set [9] in a line: Inhibition of influenza B virus B/Jiangsu/10/2003 neuraminidase.
Data set [10] relates to Influenza A virus. Description: Antiviral activity against influenza A virus A/Guangdong/243/72 ([…]) infected in MDCK cells assessed as inhibition of virus-induced cytopathic effect. Type of data set: functional, organism-based. Background: Damage to the host cells serves as the signal in cytopathic effect assays.
The nature of data set [11]: Selectivity index, ratio of CC50 for cytotoxicity against MDCK cells to IC50 for influenza A virus A/Guangdong/243/72 ([…]) infected in MDCK cells. Type of data set: toxicity, cell-based. Particulars: dog, read-out: Ratio CC50/IC50.
Data set [12] relates to Human immunodeficiency virus 1. Description: Antiviral activity against HIV-1 GB8 infected in human JM1 cells. Particulars: Human immunodeficiency virus 1, GB8, JM1. Type of data set: functional, organism-based.
For data set [13], the system named is Human alphaherpesvirus 2. Nature of the data set: Antiviral activity against HSV-2 VR-734 infected in African green monkey Vero cells assessed as inhibition of viral replication measured after 72 hrs by MTT assay. Type of data set: functional, organism-based. The following applies: Human alphaherpesvirus 2, VR-734, Vero.
Data set [14] concerns Human alphaherpesvirus 2. Nature of the data set: Antiviral activity against HSV-2 VR-734 infected in human HeLa cells. Type of data set: functional, organism-based. Particulars: Human alphaherpesvirus 2, VR-734, HeLa.
For data set [15], the system named is Human alphaherpesvirus 2. Description: Antiviral activity against HSV-2 VR-734 infected in human NCI-H1299 cells. Type of data set: functional, organism-based. The following applies: Human alphaherpesvirus 2, VR-734, NCI-H1299.
For another data set, the system named is Enterovirus A71. Nature of the data set: Antiviral activity against human EV71 infected in African green monkey Vero cells assessed as reduction in cytopathic effect by SRB assay. It is filed as functional, organism-based. The following applies: Enterovirus A.
Another data set relates to Coxsackievirus B3. Description: Antiviral activity against CVB3 infected in African green monkey Vero cells assessed as reduction in cytopathic effect by SRB assay. The following applies: Enterovirus B. Type of data set: functional, organism-based.
In data set [16] the test system is Hepatitis C virus. Description: Antiviral activity against Hepatitis C virus infected in human Huh7.5 cells assessed as reduction in viral replication. It is filed as functional, organism-based, Hepacivirus hominis.
Data set [17] is described as follows: Cytotoxicity against HCV RNA-transfected human Huh7.5 cells assessed as reduction in cell viability. It is filed as toxicity, cell-based, Huh-7.5. The following applies: HCV RNA-transfected Huh7.5 cells.
The subject of data set [18] is Hepatitis C virus. Nature of the data set: Antiviral activity against Hepatitis C virus genotype 2 infected in renilla luciferase-J6/JFH1 RNA-transfected human Huh7.5 cells assessed as reduction in viral replication incubated for 72 hrs by qRT-PCR analysis. It is filed as functional, organism-based, Hepacivirus hominis. Particulars: genotype 2, Huh7.5, 72 h.
The nature of data set [19]: Cytotoxicity against human Huh7.5 cells infected with Hepatitis C virus assessed as reduction in cell viability. Type of data set: toxicity, cell-based, Huh-7.5.
A short description of data set [20]: Cytotoxicity against human A549 cells assessed as reduction in cell viability by Alamar blue assay. Type of data set: toxicity, cell-based.
Data set [21] relates to Hepatitis C virus. Description: Antiviral activity against Hepatitis C virus genotype 2 infected in human Huh7.5 cells assessed as reduction in viral replication by RT-PCR assay. Type of data set: functional, organism-based, Hepacivirus hominis. The following applies: genotype 2, Huh7.5.
Data set [22] has as its system Hepatitis C virus. Nature of the data set: Antiviral activity against Hepatitis C virus genotype 1 infected in Bart79I RNA-transfected human Huh7.5 cells assessed as reduction in viral replication incubated for 24 to 72 hrs by RT-PCR assay. Type of data set: functional, organism-based, Hepacivirus hominis. Particulars: genotype 1, Huh7.5.
In data set [23] the test system is Influenza A virus. Description: Antiviral activity against influenza A virus A/PR/8/34 (H1N1) infected in human A549 cells assessed as inhibition of RANTES production incubated for 48 hrs by ELISA. Type of data set: functional, organism-based. Particulars: A549, 48 h.
Data set [24] is described as follows: Selectivity index, ratio of TC50 for cytotoxicity against HEK293T cells to EC50 for antiviral activity against HIV-1 infected in HEK293T cells. Type of data set: toxicity, cell-based. Particulars: human.
Data set [25] deals with Human immunodeficiency virus 1. Description: Antiviral activity against HIV-1 infected in HEK293T cells. It is filed as functional, organism-based. Particulars: Human immunodeficiency virus 1, HEK-293T.
A short description of data set [26]: Cytotoxicity against HEK293T cells. It is filed as toxicity, cell-based, HEK-293T. The following applies: human, read-out: TC50 (the source's name).
Data set [27] is described as follows: Cytotoxicity against human C8166 cells assessed as inhibition of cell growth by MTT assay. It is filed as toxicity, cell-based.
In a further data set the test system is rhinovirus A1B. Description: Antiviral activity against HRV1B infected in human HeLa cells assessed as reduction in cytopathic effect by SRB assay. It is filed as functional, organism-based. The following applies: Rhinovirus A.
The nature of data set [28]: Therapeutic index, ratio of CC50 for cytotoxicity against human C8166 cells to EC50 for antiviral activity against HIV-1 infected in C8166 cells. Type of data set: toxicity, cell-based. Particulars: read-out: Ratio CC50/EC50.
The test system of data set [29] is Human immunodeficiency virus 1. Nature of the data set: Antiviral activity against HIV-1 infected in human C8166 cells assessed as inhibition of viral replication. Type of data set: functional, organism-based. The following applies: Human immunodeficiency virus 1, C8166.
The test system of the next data set is Vero C1008. Nature of the data set: Cytotoxicity against African green monkey Vero E6 cells infected with Middle East respiratory syndrome coronavirus assessed as reduction in cell viability at 250 uM by LDH assay relative to control. It is filed as toxicity, cell-based. Particulars: chlorocebus sabaeus, vero c1008, 250 µM.

SMILES strings stand for the structures. Values after ≈ are worked out from the molar mass of the structure shown.

As a reminder, the EC50 is the concentration giving half of the maximal effect. `O=C(O)c1ccccc1/N=N/c1ccc(O)cc1O`: the CC50 at 72 h in data set [1] was over 100 µg/mL. Also, the EC50 in the data set on Influenza A virus [2] stood at 7.28 µg/mL (≈ 28.2 µM).
In general, IC50 refers to the concentration needed to halve the response being measured. For `CC1=C[C@H](c2c(O)cc(/C=C/c3ccc(O)cc3O)cc2O)[C@@H](C(=O)c2ccc(O)cc2O)[C@H](c2ccc(O)cc2O)C1`, the IC50 is 2.2 µg/mL (≈ 3.78 µM) in the data set with Human alphaherpesvirus 1 [3], 2.5 µg/mL (≈ 4.29 µM) in the data set on Human alphaherpesvirus 2 [7] and 1.5 µg/mL (≈ 2.57 µM) in the data set on Human alphaherpesvirus 1 [8]. For the same molecule, the values for the selectivity ratio in data set [4], in [5] and in [6] were 32, 37 and 55, respectively.
Regarding `Oc1ccc(/C=C/c2cc(O)c3c(c2)O[C@H](c2ccc(O)cc2O)[C@H]3c2cc(O)cc(O)c2)cc1`, the IC50 in [9] stood at 26.3 µg/mL (≈ 55.9 µM); with Influenza A virus [10], 0.67 µg/mL (≈ 1.42 µM); in the data set on Influenza A virus [2], 0.67 µg/mL (≈ 1.42 µM). In addition, the selectivity ratio in [11] came to 57.4.
In turn, `O=S(=O)(O)c1cc(N=C=S)ccc1CCc1ccc(N=C=S)cc1S(=O)(=O)O` came in with an IC50 in [12] of 40 µM.
Regarding `Oc1ccc([C@H]2c3c(O)cc(O)cc3[C@@H]3c4c(cc(O)cc4[C@H]4[C@@H](c5ccc(O)cc5)c5c(O)cc(O)cc5[C@H]5c6c(cc(O)cc6[C@H]24)O[C@@H]5c2ccc(O)cc2)O[C@H]3c2ccc(O)cc2)cc1`, the IC50 in the data set with Human alphaherpesvirus 2 [13], with Human alphaherpesvirus 2 [14] and in the data set with Human alphaherpesvirus 2 [15] was 3.2 µM each time.
On to `Oc1ccc(/C=C\c2cc(O)cc(O)c2)cc1` [CIS-RESVERATROL], for which the half-inhibitory concentration (IC50) in the data set with Enterovirus A71 was 37.6 µM; in the data set with Coxsackievirus B3, 12.2 µM.
On to `Oc1ccc(/C=C/c2cc(O)cc3c2[C@@H](c2cc(O)cc(O)c2)[C@H](c2ccc(O)cc2)O3)cc1` [EPSILON-VINIFERIN], for which the EC50 with Hepatitis C virus [16] came to 0.159 µM; in the data set on Hepatitis C virus [18], 0.1 µM; in the data set on Hepatitis C virus [21] it was 2.9 µM; with Hepatitis C virus [22], 7 µM; in the data set with Influenza A virus [23], 10.1 µM. In addition, the figures for the CC50 in data set [17], in [19] and in data set [20] were over 10 µM, over 10 µM and 54.7 µM, respectively.
As for `Oc1cc(O)cc(/C=C/c2ccc(O)c(O)c2)c1` [PICEATANNOL], in data set [24], the selectivity ratio was over 18.7. In [25], this molecule returned an EC50 of 21.4 µM. In data set [26], the CC50 was over 400 µM.
Consider `Oc1ccc(/C=C/c2cc(O)cc(O)c2)cc1` [RESVERATROL], for which the concentration for half-maximal inhibition (IC50) in the data set on Influenza A virus [10] is over 22.2 µg/mL; in the data set with rhinovirus A1B, 29.7 µM. Also, the CC50 in data set [27] was 35.6 µg/mL (≈ 156 µM); in [26] it was over 300 µM; in data set [20] it was 52.6 µM. Also, the selectivity ratio in data set [28] came to 8.14. Also, the EC50 in data set [29] is 4.37 µg/mL (≈ 19.1 µM); in data set [25], over 75 µM; in the data set on Influenza A virus [23] it was 28.4 µM. In the data set with Vero C1008, the Activity is on record as 25%.

These data come from ChEMBL document CHEMBL5233255, “Natural and nature-inspired stilbenoids as antiviral agents” (Eur J Med Chem, 2020).
